Assay results from PMC6792352, “Limited Chemical Structural Diversity Found to Modulate Thyroid Hormone Receptor in the Tox21 Chemical Library” (Environmental Health Perspectives, 2019).
Where a name gives a salt, the structure may show the parent alone.

Assay: in vitro
Conditions: rat, gh3-tre-luc cells

SMILES	CC50 at 24 h (AC50 (uM) modified / 1000) [µM]	further results
CN1C(CSCC(F)(F)F)Nc2cc(Cl)c(S(N)(=O)=O)cc2S1(=O)=O (stereo not shown) [Polythiazide]	> 50	–
O=C(O)Cc1nn(Cc2ccc(Br)cc2F)c(=O)c2ccccc12 [Ponalrestat]	> 50	–
Cc1cc(C)c(N=Nc2c(O)c(S(=O)(=O)O)cc3cc(S(=O)(=O)O)ccc23)cc1C [Ponceau 3R]	> 6	–
CC[C@@H]([C@H](C)O)n1ncn(-c2ccc(N3CCN(c4ccc(OC[C@@H]5CO[C@@](Cn6cncn6)(c6ccc(F)cc6F)C5)cc4)CC3)cc2)c1=O [Posaconazole]	26.4	–
O=C1NC(=O)c2ccccc21 [Potassium 1,3-dioxo-1,3-dihydroisoindol-2-ide]	> 90	–
O=C(O)Cc1cccc2ccccc12 [Potassium 1-naphthaleneacetate]	> 90	–
CC(=O)CC(=O)Nc1ccc(S(=O)(=O)O)cc1 [Potassium 4-[(3-oxobutanoyl)amino]benzenesulfonate]	> 90	–
O=S(=O)(O)c1ccc2cc(O)ccc2c1 [Potassium 6-hydroxynaphthalene-2-sulfonate]	> 90	–
O=C(O)CNc1ccccc1 [Potassium anilinoacetate]	> 90	–
O=C(O)c1nc(=O)[nH]c(=O)[nH]1 [Potassium oxonate]	> 50	–
O=S(=O)(O)C(F)(F)C(F)(F)C(F)(F)C(F)(F)F [Potassium perfluorobutanesulfonate]	–	CC50 at 24 h (AC50 (uM) modified / 1000, Tox21_110001=Tox21_400051, viability, 1 nM T3 present, 24 h): > 100 µM
O=S(=O)(O)C(F)(F)C(F)(F)C(F)(F)C(F)(F)C(F)(F)C(F)(F)F [Potassium perfluorohexanesulfonate]	–	CC50 at 24 h (AC50 (uM) modified / 1000, Tox21_110001=Tox21_300396, viability, 1 nM T3 present, 24 h): > 90 µM
O=S(=O)(O)C(F)(F)C(F)(F)C(F)(F)C(F)(F)C(F)(F)C(F)(F)C(F)(F)C(F)(F)F [Potassium perfluorooctanesulfonate]	–	CC50 at 24 h (AC50 (uM) modified / 1000, Tox21_110001=Tox21_300544, viability, 1 nM T3 present, 24 h): 49.4 µM
N#CS [Potassium thiocyanate]	> 90	–
CC(=O)Nc1ccc(OCC(O)CNC(C)C)cc1 (stereo not shown) [Practolol]	> 50	–
C#CCC(Cc1cnc2nc(N)nc(N)c2n1)c1ccc(C(=O)N[C@@H](CCC(=O)O)C(=O)O)cc1 (stereo partly shown) [Pralatrexate]	> 50	–
C[n+]1ccccc1/C=N/O [Pralidoxime chloride]	> 20	–
C#CCC1=C(C)C(OC(=O)C2C(C=C(C)C)C2(C)C)CC1=O (stereo not shown) [Prallethrin]	66.6	–
CCCN[C@H]1CCc2nc(N)sc2C1 [Pramipexole dihydrochloride monohydrate]	> 100	–
CCCCOc1ccc(OCCCN2CCOCC2)cc1 [Pramoxine hydrochloride]	> 20	–

SMILES	CC50 at 24 h (AC50 (uM) modified / 1000) [µM]	further results
O=C(N[C@H]1N=C(c2ccccc2F)c2cccc3c2N(CC3)C1=O)c1cc2ccccc2[nH]1 [Pranazepide]	> 50	–
O=C(Nc1cccc2c(=O)cc(-c3nnn[nH]3)oc12)c1ccc(OCCCCc2ccccc2)cc1 [Pranlukast]	> 50	–
CC(C)[N+](C)(C)CC(O)COc1cccc2ccccc12 (stereo not shown) [Pranolium chloride]	> 50	–
CC(C(=O)O)c1ccc2c(c1)Cc1cccnc1O2 (stereo not shown) [Pranoprofen]	> 50	–
CC(=O)Oc1cc2c(s1)CCN(C(C(=O)C1CC1)c1ccccc1F)C2 (stereo not shown) [Prasugrel hydrochloride]	> 50	–
COc1ccc(C(=O)c2c(C)n(CCN3CCOCC3)c3ccccc23)cc1 [Pravadoline]	–	CC50 at 24 h (AC50 (uM) modified / 1000, Tox21_110001=Tox21_111785, viability, 1 nM T3 present, 24 h): > 50 µM
CC[C@H](C)C(=O)O[C@H]1C[C@H](O)C=C2C=C[C@H](C)[C@H](CC[C@@H](O)C[C@@H](O)CC(=O)O)[C@H]21 [Pravastatin sodium]	> 90	–
N=C(N)n1cccn1 [Praxadine hydrochloride]	> 50	–
O=C1CN=C(c2ccccc2)c2cc(Cl)ccc2N1CC1CC1 [Prazepam]	> 90	–
O=C(C1CCCCC1)N1CC(=O)N2CCc3ccccc3C2C1 (stereo not shown) [Praziquantel]	> 90	–
COc1cc2nc(N3CCN(C(=O)c4ccco4)CC3)nc(N)c2cc1OC [Prazosin]	8.15	–
CCOC(=O)O[C@]1(C(=O)COC(=O)CC)CC[C@H]2[C@@H]3CCC4=CC(=O)C=C[C@]4(C)[C@H]3[C@@H](O)C[C@@]21C [Prednicarbate]	> 20	–
C[C@]12C=CC(=O)C=C1CC[C@@H]1[C@@H]2[C@@H](O)C[C@@]2(C)[C@H]1CC[C@]2(O)C(=O)COC(=O)CCC(=O)O [Prednisolone 21-hemisuccinate]	> 50	–
CC(=O)OCC(=O)[C@@]1(O)CC[C@H]2[C@@H]3CCC4=CC(=O)C=C[C@]4(C)[C@H]3[C@@H](O)C[C@@]21C [Prednisolone acetate]	> 50	–
C[C@]12C=CC(=O)C=C1CC[C@@H]1[C@@H]2[C@@H](O)C[C@@]2(C)[C@H]1CC[C@]2(O)C(=O)CO [Prednisolone]	> 90	–
C[C@]12C=CC(=O)C=C1CC[C@@H]1[C@@H]2C(=O)C[C@@]2(C)[C@H]1CC[C@]2(O)C(=O)CO [Prednisone]	> 90	–
CC(C)C[C@H](CN)CC(=O)O [Pregabalin]	–	CC50 at 24 h (AC50 (uM) modified / 1000, Tox21_110001=Tox21_111475, viability, 1 nM T3 present, 24 h): > 50 µM
C[C@H](O)[C@H]1CC[C@H]2[C@@H]3CC[C@@H]4C[C@H](O)CC[C@]4(C)[C@H]3CC[C@]12C [Pregnandiol]	> 50	–
CC(=O)[C@H]1[C@H](C#N)C[C@H]2[C@@H]3CC=C4C[C@@H](O)CC[C@]4(C)[C@H]3CC[C@@]21C [Pregnenolone carbonitrile]	> 60	–
CC(=O)[C@H]1CC[C@H]2[C@@H]3CC=C4C[C@@H](O)CC[C@]4(C)[C@H]3CC[C@]12C [Pregnenolone]	> 90	–

SMILES	CC50 at 24 h (AC50 (uM) modified / 1000) [µM]	further results
CC(CC(C#N)(c1ccccc1)c1ccccc1)N(C)C (stereo not shown) [Premethadone]	–	CC50 at 24 h (AC50 (uM) modified / 1000, Tox21_110001=Tox21_112859, viability, 1 nM T3 present, 24 h): 21.6 µM
OC(CCN1CCCCC1)(c1ccccc1)c1ccccc1 [Pridinol]	25.8	–
CC[N+]1(CC)CCC(=C(c2ccccc2)c2ccccc2)C1C (stereo not shown) [Prifinium bromide]	> 50	–
CCCNC(C)C(=O)Nc1ccccc1C (stereo not shown) [Prilocaine hydrochloride]	> 50	–
COc1cc(NC(C)CCCN)c2ncccc2c1 (stereo not shown) [Primaquine diphosphate]	15	–
CCC1(c2ccccc2)C(=O)NCNC1=O [Primidone]	> 90	–
CCCC(C(=O)OCCN(CC)CC)(c1ccccc1)c1ccccc1 [Proadifen hydrochloride]	24.7	–
CCCN(CCC)S(=O)(=O)c1ccc(C(=O)O)cc1 [Probenecid]	> 90	–
CC(C)(Sc1cc(C(C)(C)C)c(O)c(C(C)(C)C)c1)Sc1cc(C(C)(C)C)c(O)c(C(C)(C)C)c1 [Probucol]	> 20	–
CCN(CC)CCNC(=O)c1ccc(N)cc1 [Procainamide hydrochloride]	> 90	–
CNNCc1ccc(C(=O)NC(C)C)cc1 [Procarbazine hydrochloride]	> 50	–
CC[C@@H](NC(C)C)[C@@H](O)c1ccc(O)c2[nH]c(=O)ccc12 [Procaterol]	> 50	–
CN1CCN(CCCN2c3ccccc3Sc3ccc(Cl)cc32)CC1 [Prochlorperazine dimaleate]	5.73	–
O=C(O)CCc1nc2ccccc2[nH]1 [Procodazole]	> 50	–
CC(C)(C#N)Nc1nc(Cl)nc(NC2CC2)n1 [Procyazine]	> 90	–
OC(CCN1CCCC1)(c1ccccc1)C1CCCCC1 (stereo not shown) [Procyclidine hydrochloride]	10.6	–
CC12CC1(C)C(=O)N(c1cc(Cl)cc(Cl)c1)C2=O (stereo not shown) [Procymidone]	> 90	–
CCCN(CCC)c1c([N+](=O)[O-])cc(C(F)(F)F)c(N)c1[N+](=O)[O-] [Prodiamine]	14.5	–
